From PubChem BioAssay (NCI)
Several values for one entry are separate records, joined by “and”; a condition that tells them apart may be missing. Identical values can stand only once.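 96-well plates; 48 h exposure; 5 concentrations. Endpoints by linear interpolation between flanking doses. Not reached: highest tested concentration assigned. GI50 is the concentration that inhibits growth by half. Definition used: TGI = concentration required for complete inhibition of growth.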

How the values were obtained:
Test in all cases: DTP human tumour cell line panel, 48 h
A498 renal = test system: A498 renal
ACHN renal = test system: ACHN renal
HOP-92 NSCLC = test system: HOP-92 NSCLC
MOLT-4 leukemia = test system: MOLT-4 leukemia
SF-268 CNS = test system: SF-268 CNS
SF-539 CNS = test system: SF-539 CNS
SNB-19 CNS = test system: SNB-19 CNS
SNB-75 CNS = test system: SNB-75 CNS
SR leukemia = test system: SR leukemia
TK-10 renal = test system: TK-10 renal

| Compound | GI50 (A498 renal) | TGI (A498 renal) | GI50 (ACHN renal) | GI50 (HOP-92 NSCLC) | GI50 (MOLT-4 leukemia) [µM] | TGI (MOLT-4 leukemia) | GI50 (SF-268 CNS) [µM] | GI50 (SF-539 CNS) [µM] | TGI (SF-539 CNS) | GI50 (SNB-19 CNS) [µM] | TGI (SNB-19 CNS) | GI50 (SNB-75 CNS) | TGI (SNB-75 CNS) | TGI (SR leukemia) | GI50 (TK-10 renal) | TGI (TK-10 renal) | TGI (ACHN renal) | TGI (HOP-92 NSCLC) | TGI (SF-268 CNS) | GI50 (SR leukemia) |
| --- | --- | --- | --- | --- | --- | --- | --- | --- | --- | --- | --- | --- | --- | --- | --- | --- | --- | --- | --- | --- |
| CN[C@@H]1C[C@H]2O[C@@](C)([C@@H]1OC)n1c3ccccc3c3c4c(c5c6ccccc6n2c5c31)C(=O)N[C@@H]4O | 0.0053 µM | 0.0232 µM and 0.0257 µM | 0.00526 µM and < 0.0151 µM | < 0.0205 µM | 0.0228 | 0.0981 µM and 0.654 µM | 0.008 | 0.0196 | 0.0314 µM and 0.0577 µM | 0.0502 | 0.161 µM and 0.77 µM | 0.00322 µM | 0.0143 µM and 0.0271 µM | 0.833 µM | 0.0195 µM and 0.0211 µM | 0.3 µM and 0.0914 µM |  |  |  |  |
| COc1ccc2c(c1)[n+]([O-])c(/C(C)=N/NC(=O)CC#N)c[n+]2[O-] |  | > 100 µM |  |  |  | > 100 µM |  |  | > 100 µM |  | > 100 µM |  | > 100 µM | > 100 µM |  | > 100 µM | > 100 µM | > 100 µM | > 100 µM |  |
| Nc1ccc(S(=O)(=O)NCc2nccs2)cc1 |  | 33.4 µM |  |  |  | 69 µM |  |  | 36.2 µM |  | > 100 µM |  | 58.8 µM | > 100 µM |  | 56.5 µM | 63.4 µM | 41.4 µM | 46.3 µM |  |
| CNC(=S)N/N=C/c1ccc([N+](=O)[O-])s1 |  | > 10 µM |  |  |  | > 10 µM |  |  | > 10 µM |  | > 10 µM |  | > 10 µM | > 10 µM |  | > 10 µM | > 10 µM | > 10 µM | > 10 µM |  |
| CCN(CC)CCNc1n[n+]([O-])c2ccccc2[n+]1[O-] | 5.47 µM and 2.54 µM | 9.39 µM and 9.85 µM |  | 2.28 µM and 7.45 µM |  | 5.12 µM and 5.07 µM |  |  | 25.7 µM and 42.9 µM |  | > 72.1 µM and 56 µM | 4.07 µM and 14.8 µM | 45.3 µM and 55.4 µM | 6.87 µM and 28.7 µM |  | > 68.5 µM and 41.8 µM | 18.4 µM and 21.1 µM | > 21.8 µM and 46.6 µM | 48.4 µM and > 100 µM | 2.92 µM and 6.7 µM |
| CCN(CC)CCCC(C)Nc1c2ccc(C)cc2nc2ccc(OC)cc12 (stereo not given) | 0.863 µM | 13.8 µM | 0.741 µM | 0.885 µM | 0.777 | 13.6 µM | 2.53 | 1.71 | 3.98 µM | 4.78 | 35.7 µM | 1.37 µM | 3.24 µM | 7.18 µM | 0.569 µM | 12.5 µM | 11.7 µM | 5.1 µM | 13.5 µM | 2.04 µM |
| CCOc1c(Cl)cc(CNC(C)C(O)c2ccccc2)cc1OC (stereo not given) | 0.244 µM | 26.4 µM | 23.7 µM | 12.9 µM | 26 | 85.7 µM | 42.1 | 16.8 | 34 µM | 32.7 | > 100 µM | 12.7 µM | 46.9 µM | 52.5 µM | 31.7 µM | > 100 µM | > 100 µM | 48.5 µM | > 100 µM | 17.1 µM |
| C[C@]12CC[C@@H]3c4ccc(O)cc4C(O)C[C@H]3[C@@H]1CCC2=O (stereo not given in full) | 76.2 µM | > 100 µM | > 100 µM | 53.8 µM | > 100 | > 100 µM | > 100 | > 100 | > 100 µM | > 100 | > 100 µM | 26.9 µM | > 100 µM | > 100 µM | > 100 µM | > 100 µM | > 100 µM | > 100 µM | > 100 µM | > 100 µM |
| Cc1cc(-c2nnc3n2CCCCC3)c(C)n1-c1ccc(Cl)c(Cl)c1 | 14 µM | 28 µM | 12 µM | 11.9 µM | 15 | 42.9 µM | 17.8 | 16.6 | 32.4 µM | 15.5 | 47.1 µM | 13.4 µM | 27.7 µM | 45.3 µM | 20.1 µM | 65.3 µM | > 100 µM | 31.9 µM | 36.6 µM | 11 µM |
| O=Cc1ccc(-c2cccs2)s1 |  | 5.21 µM |  |  |  | > 100 µM |  |  | > 100 µM |  | > 100 µM |  | > 100 µM | > 100 µM |  | 11.7 µM | > 100 µM | > 68.1 µM | > 100 µM |  |
| Cc1ccc(NC(=O)Cn2c(Br)nc3c2c(=O)n(C)c(=O)n3C)cc1 | 2.01 µM | 5.87 µM | 2.8 µM | 1.9 µM | 27.9 | > 100 µM | 8.3 | 1.94 | 4.21 µM | 7.92 | 23.7 µM | 1.43 µM | 3.95 µM | 35.5 µM | 3.2 µM | 9.93 µM | 8.12 µM | 5.29 µM | 22.8 µM | 8.96 µM |
| FCc1ncc(-c2ccc(C(F)(F)F)cc2)c(NC2CCCCCC2)n1 | > 10 µM | > 10 µM | > 10 µM | 5.29 µM | > 10 | > 10 µM | > 10 | > 10 | > 10 µM | > 10 | > 10 µM | > 10 µM | > 10 µM | > 10 µM | > 10 µM | > 10 µM | > 10 µM | > 10 µM | > 10 µM | > 10 µM |
| Nc1nc(CCC(=O)Nc2cccc(C(F)(F)F)c2)cc(-c2ccc3ccccc3c2)n1 |  | > 100 µM |  |  |  | > 100 µM |  |  | > 100 µM |  | > 100 µM |  | > 100 µM | > 100 µM |  | > 100 µM | > 100 µM | > 100 µM | > 100 µM |  |
| CCCCCCN(CCCCCC)CC(O)c1ccc2c3c(cccc13)CC2 (stereo not given) | 2.31 µM | 12 µM | 10 µM | 2.16 µM | 4.36 | 22.7 µM | 12 | 3.83 | 15.2 µM | 11.8 | 26.6 µM | 13.6 µM | 27.1 µM | 13.8 µM | 10.7 µM | 23.2 µM | 23.5 µM | 9.27 µM | 24.9 µM | 3.32 µM |
| COC(=O)CCC1=C(C)/C(=C/c2[nH]c(-c3ccc[nH]3)cc2OC)N=C1C | 4.71 µM | 18.5 µM | 0.84 µM | 0.191 µM | 0.368 | 7.08 µM | 0.708 | 1.21 | 5.32 µM | 2.02 | 17.5 µM | 0.382 µM | 3.18 µM | 88.7 µM | 2.34 µM | 9.22 µM | 3.75 µM | 0.571 µM | 7.01 µM | 0.317 µM |
